Our source for the Ki and inhibition values is ChEMBL document CHEMBL1152960 (Bioorg Med Chem, 2009).

The target of test [1] is T1, Adenosine receptor A3 (Homo sapiens, UniProt P0DMS8).
T1 sequence (P0DMS8 whole entry): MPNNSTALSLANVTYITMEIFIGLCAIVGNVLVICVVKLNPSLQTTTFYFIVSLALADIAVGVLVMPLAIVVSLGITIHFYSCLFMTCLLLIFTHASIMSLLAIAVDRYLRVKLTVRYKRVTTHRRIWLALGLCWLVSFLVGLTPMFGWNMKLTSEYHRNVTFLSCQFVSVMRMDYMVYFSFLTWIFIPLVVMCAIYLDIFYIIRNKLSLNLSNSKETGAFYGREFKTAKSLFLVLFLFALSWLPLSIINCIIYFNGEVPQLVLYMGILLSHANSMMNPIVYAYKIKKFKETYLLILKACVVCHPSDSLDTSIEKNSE
Nature of the test: Displacement of [3H]NECA from human recombinant adenosine A3 receptor expressed in HEK293T cells by scintillation counting. The format is cell-based, HEK-293T. A general note: In a radioligand displacement assay an active substance lowers the binding of a labelled ligand.

In test [2] the target is T2, Adenosine receptor A1 (Homo sapiens, UniProt P30542).
T2 sequence (P30542 whole entry): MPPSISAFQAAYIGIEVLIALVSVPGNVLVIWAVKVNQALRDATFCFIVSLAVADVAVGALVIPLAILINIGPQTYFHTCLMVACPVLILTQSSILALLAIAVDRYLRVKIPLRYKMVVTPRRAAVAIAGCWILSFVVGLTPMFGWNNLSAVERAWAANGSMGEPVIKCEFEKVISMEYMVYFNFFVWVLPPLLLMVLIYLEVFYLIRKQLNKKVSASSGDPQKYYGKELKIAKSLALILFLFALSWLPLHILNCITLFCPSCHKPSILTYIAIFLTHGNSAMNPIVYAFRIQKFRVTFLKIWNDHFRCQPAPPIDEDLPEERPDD
The test can be described thus: Displacement of [3H]DPCPX from human recombinant adenosine A1 receptor expressed in HEK293T cells by scintillation counting. The format is cell-based, HEK-293T.

For test [3], the target named is Adenosine receptor A2a (Homo sapiens, UniProt P29274). Nature of the test: biochemical.
Chain of Adenosine receptor A2a (P29274 whole entry): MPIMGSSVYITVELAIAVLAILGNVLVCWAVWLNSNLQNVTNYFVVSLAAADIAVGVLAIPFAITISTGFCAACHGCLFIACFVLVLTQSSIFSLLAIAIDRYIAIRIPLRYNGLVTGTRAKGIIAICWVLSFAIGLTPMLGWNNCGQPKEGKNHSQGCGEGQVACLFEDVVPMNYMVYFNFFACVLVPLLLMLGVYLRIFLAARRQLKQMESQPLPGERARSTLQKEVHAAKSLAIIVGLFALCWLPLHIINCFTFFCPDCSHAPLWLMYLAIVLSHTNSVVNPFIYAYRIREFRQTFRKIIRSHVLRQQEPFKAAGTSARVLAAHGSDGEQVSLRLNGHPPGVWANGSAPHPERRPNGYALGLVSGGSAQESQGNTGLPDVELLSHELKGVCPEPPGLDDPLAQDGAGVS
Description: Displacement of [3H]CGS21680 from human recombinant adenosine A2A receptor expressed in HEK293T cells by scintillation counting
Test [4] addresses T3, Adenosine receptor A3 (Homo sapiens) (UniProt P0DMS8).
T3 sequence (whole entry): T1 sequence (P0DMS8 whole entry)
The test can be described thus: Inhibition of [3H]NECA binding to human recombinant adenosine A3 receptor expressed in HEK293T cells at 100 uM by scintillation counting. The format is cell-based. The settings on record: HEK-293T.

In general, Ki refers to a dissociation constant, usually derived from enzyme kinetics or from competition with a known ligand. Take `CCCOc1cncc2[nH]c3c(=O)n(CCC)c(=O)n(CCC)c3c12`: the values for the inhibition constant Ki in test [1], in test [2] and in test [3] were 3.82 nM, 346 nM and 164 nM, respectively.
For the molecule `Cn1c(=O)c2[nH]c3cccnc3c2n(C)c1=O`, the Ki worked out at 13.9 nM in test [1], 379 nM in test [2] and 893 nM in test [3].
Turning to `Cn1c(=O)c2[nH]c3cnccc3c2n(C)c1=O`, the values for the Ki in test [1], in test [2] and in test [3] were 526 nM, 11700 nM and 10100 nM, respectively.
By inhibition is commonly meant the change of the read-out against control, counted positive when it falls. For `Cn1c(=O)c2c(ncn2C)n(C)c1=O`, the inhibition in test [4] came out at 9%.
Regarding `CCCn1c(=O)c2[nH]c3cccnc3c2n(CCC)c1=O`, the inhibition constant Ki in test [1] is 16.8 nM; in test [2] it was 132 nM; in test [3], 570 nM.
As to `CCCOc1cnc2c(c1)[nH]c1c(=O)n(CCC)c(=O)n(CCC)c12`, the Ki is 209 nM in test [1], 921 nM in test [2] and 1470 nM in test [3].
`CCCn1c(=O)c2[nH]c3cnccc3c2n(CCC)c1=O`: the results for the Ki in test [1], in test [2] and in test [3] were 290 nM, 1410 nM and 3630 nM, respectively.
